Experimental data: ChEMBL document CHEMBL6153104, “Discovery of the first potent ROR1 degrader for the treatment of non-small cell lung cancer” (Eur J Med Chem, 2025)

Key:
[1] = molecular target: T1, Protein cereblon/Inactive tyrosine-protein kinase transmembrane receptor ROR1 (Homo sapiens) (UniProt Q96SW2+Q01973); experiment: PROTAC activity at CRBN/ROR1 in human NCI-H23 cells assessed as induction of ROR1 degradation at 1 uM incubated for 24 hrs by Western blot analysis relative to control; type: cell-based
[2] = molecular target: T1, Protein cereblon/Inactive tyrosine-protein kinase transmembrane receptor ROR1 (Homo sapiens); experiment: PROTAC activity at CRBN/ROR1 in human NCI-H23 cells assessed as induction of ROR1 degradation at 0.1 uM incubated for 24 hrs by Western blot analysis relative to control; type: cell-based

T1 sequence (Q01973 whole entry, looked up): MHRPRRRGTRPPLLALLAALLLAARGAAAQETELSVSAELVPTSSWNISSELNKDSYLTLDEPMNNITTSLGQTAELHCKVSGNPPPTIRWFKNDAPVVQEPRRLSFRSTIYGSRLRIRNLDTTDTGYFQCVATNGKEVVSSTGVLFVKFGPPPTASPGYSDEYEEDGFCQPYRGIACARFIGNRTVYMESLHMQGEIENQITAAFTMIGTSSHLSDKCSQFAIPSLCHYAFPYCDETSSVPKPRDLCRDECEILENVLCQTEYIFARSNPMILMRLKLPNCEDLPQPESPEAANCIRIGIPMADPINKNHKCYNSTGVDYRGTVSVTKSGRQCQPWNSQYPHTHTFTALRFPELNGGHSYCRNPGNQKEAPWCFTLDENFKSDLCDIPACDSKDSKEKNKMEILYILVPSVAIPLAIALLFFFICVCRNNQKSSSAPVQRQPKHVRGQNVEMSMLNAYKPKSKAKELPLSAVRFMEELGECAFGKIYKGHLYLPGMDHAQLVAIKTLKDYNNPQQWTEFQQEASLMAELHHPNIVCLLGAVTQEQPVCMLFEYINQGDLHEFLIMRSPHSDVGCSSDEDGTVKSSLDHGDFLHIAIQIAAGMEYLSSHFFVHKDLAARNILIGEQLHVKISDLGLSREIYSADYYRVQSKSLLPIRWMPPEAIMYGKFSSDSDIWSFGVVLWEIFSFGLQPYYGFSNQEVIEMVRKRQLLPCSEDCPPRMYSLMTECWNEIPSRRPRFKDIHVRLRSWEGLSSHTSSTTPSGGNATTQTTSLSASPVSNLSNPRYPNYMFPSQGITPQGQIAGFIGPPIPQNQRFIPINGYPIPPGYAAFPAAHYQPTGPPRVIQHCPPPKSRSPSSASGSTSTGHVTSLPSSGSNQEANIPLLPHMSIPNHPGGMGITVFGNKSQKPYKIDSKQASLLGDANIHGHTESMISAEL
T1 sequence (Q96SW2 whole entry, looked up): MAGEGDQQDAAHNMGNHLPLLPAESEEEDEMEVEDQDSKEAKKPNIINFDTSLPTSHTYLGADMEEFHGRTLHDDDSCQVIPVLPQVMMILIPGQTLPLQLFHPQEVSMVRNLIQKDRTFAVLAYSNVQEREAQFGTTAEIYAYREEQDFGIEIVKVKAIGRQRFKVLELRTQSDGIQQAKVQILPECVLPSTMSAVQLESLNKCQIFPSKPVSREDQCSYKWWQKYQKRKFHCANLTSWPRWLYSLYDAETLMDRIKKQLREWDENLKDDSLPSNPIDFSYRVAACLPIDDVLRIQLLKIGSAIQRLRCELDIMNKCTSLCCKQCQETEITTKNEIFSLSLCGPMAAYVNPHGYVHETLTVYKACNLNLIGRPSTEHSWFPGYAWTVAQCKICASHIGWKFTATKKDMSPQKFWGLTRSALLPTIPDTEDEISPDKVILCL

| Activity [1] [%] | Activity [2] [%] | SMILES |
| --- | --- | --- |
| 46.8 | 11 | CCN1CCC(Nc2c(Br)cnc3[nH]c(-c4ccc(N5CCN(C(=O)CCCNc6ccc7c(c6)C(=O)N(C6CCC(=O)NC6=O)C7=O)CC5)cc4)nc23)CC1 (stereo not given) |
| 60.5 | 0 | CCN1CCC(Nc2c(Br)cnc3[nH]c(-c4ccc(N5CCN(C(=O)CCCCCCCCCOc6ccc7c(c6)C(=O)N(C6CCC(=O)NC6=O)C7=O)CC5)cc4)nc23)CC1 (stereo not given) |
| 97.4 | 23.2 | CCN1CCC(Nc2c(Br)cnc3[nH]c(-c4ccc(N5CCN(CCCNc6ccc7c(c6)C(=O)N(C6CCC(=O)NC6=O)C7=O)CC5)cc4)nc23)CC1 (stereo not given) |
| 0 | 0 | CCN1CCC(Nc2c(Br)cnc3[nH]c(-c4ccc(N5CCN(C(=O)CCCCCCCOc6ccc7c(c6)C(=O)N(C6CCC(=O)NC6=O)C7=O)CC5)cc4)nc23)CC1 (stereo not given) |
| 0 | 0 | CCN1CCC(Nc2c(Br)cnc3[nH]c(-c4ccc(N5CCN(C(=O)COc6ccc7c(c6)C(=O)N(C6CCC(=O)NC6=O)C7=O)CC5)cc4)nc23)CC1 (stereo not given) |
| 76 | 6.6 | CCN1CCC(Nc2c(Br)cnc3[nH]c(-c4ccc(N5CCN(C(=O)CCCNc6cccc7c6C(=O)N(C6CCC(=O)NC6=O)C7=O)CC5)cc4)nc23)CC1 (stereo not given) |
| 75.3 | 1.2 | CCN1CCC(Nc2c(Br)cnc3[nH]c(-c4ccc(N5CCN(C(=O)CCCCCCCNc6cccc7c6C(=O)N(C6CCC(=O)NC6=O)C7=O)CC5)cc4)nc23)CC1 (stereo not given) |
| 89.9 | 37.6 | CCN1CCC(Nc2c(Br)cnc3[nH]c(-c4ccc(N5CCN(CCCCCCNc6ccc7c(c6)C(=O)N(C6CCC(=O)NC6=O)C7=O)CC5)cc4)nc23)CC1 (stereo not given) |
| 57.5 | 6.7 | CCN1CCC(Nc2c(Br)cnc3[nH]c(-c4ccc(N5CCN(C(=O)CCCCCCCCCNc6cccc7c6C(=O)N(C6CCC(=O)NC6=O)C7=O)CC5)cc4)nc23)CC1 (stereo not given) |
| 50.6 | 0 | CCN1CCC(Nc2c(Br)cnc3[nH]c(-c4ccc(N5CCN(C(=O)CCCOc6cccc7c6C(=O)N(C6CCC(=O)NC6=O)C7=O)CC5)cc4)nc23)CC1 (stereo not given) |
| 99.3 | 69.7 | CCN1CCC(Nc2c(Br)cnc3[nH]c(-c4ccc(N5CCN(CCNc6cccc7c6C(=O)N(C6CCC(=O)NC6=O)C7=O)CC5)cc4)nc23)CC1 (stereo not given) |
| 92.7 | 3.2 | CCN1CCC(Nc2c(Br)cnc3[nH]c(-c4ccc(N5CCN(CCNc6ccc7c(c6)C(=O)N(C6CCC(=O)NC6=O)C7=O)CC5)cc4)nc23)CC1 (stereo not given) |
| 73.3 | 30.5 | CCN1CCC(Nc2c(Br)cnc3[nH]c(-c4ccc(N5CCN(C(=O)CCCCCCCNc6ccc7c(c6)C(=O)N(C6CCC(=O)NC6=O)C7=O)CC5)cc4)nc23)CC1 (stereo not given) |
| 0 | 0 | CCN1CCC(Nc2c(Br)cnc3[nH]c(-c4ccc(N5CCN(C(=O)CCCCCOc6cccc7c6C(=O)N(C6CCC(=O)NC6=O)C7=O)CC5)cc4)nc23)CC1 (stereo not given) |
| 75.8 | 6.2 | CCN1CCC(Nc2c(Br)cnc3[nH]c(-c4ccc(N5CCN(C(=O)CCCCCNc6cccc7c6C(=O)N(C6CCC(=O)NC6=O)C7=O)CC5)cc4)nc23)CC1 (stereo not given) |
| 0 | 0 | CCN1CCC(Nc2c(Br)cnc3[nH]c(-c4ccc(N5CCN(C(=O)CCCCCOc6ccc7c(c6)C(=O)N(C6CCC(=O)NC6=O)C7=O)CC5)cc4)nc23)CC1 (stereo not given) |
| 88.7 | 0 | CCN1CCC(Nc2c(Br)cnc3[nH]c(-c4ccc(N5CCN(CCOCCOCCNc6ccc7c(c6)C(=O)N(C6CCC(=O)NC6=O)C7=O)CC5)cc4)nc23)CC1 (stereo not given) |
| 99.7 | 76.1 | CCN1CCC(Nc2c(Br)cnc3[nH]c(-c4ccc(N5CCN(CCCNc6cccc7c6C(=O)N(C6CCC(=O)NC6=O)C7=O)CC5)cc4)nc23)CC1 (stereo not given) |
| 73.5 | 0 | CCN1CCC(Nc2c(Br)cnc3[nH]c(-c4ccc(N5CCN(CCOCCOCCOCCNc6ccc7c(c6)C(=O)N(C6CCC(=O)NC6=O)C7=O)CC5)cc4)nc23)CC1 (stereo not given) |
| 96.5 | 6.1 | CCN1CCC(Nc2c(Br)cnc3[nH]c(-c4ccc(N5CCN(CCCCCCNc6cccc7c6C(=O)N(C6CCC(=O)NC6=O)C7=O)CC5)cc4)nc23)CC1 (stereo not given) |
